This is an account of results in patent US12702649B2, “Method of treating cystic fibrosis airway disease” (priority 2016, dated 2026).

“Also recorded” adds a separate entry of the source. Like-named read-outs stand apart in the source and are kept apart here.

Data set [1] concerns nasal pH of healthy volunteers. The experiment in a line: Nasal pH of healthy human volunteers after instillation. In kind it is in vivo. The conditions noted are these: for nasal pH: 250 μl of 0.3 M solution. How it is done: (§1) Prior to each study the pH probe was calibrated in buffer solutions of pH 6, 7 and 8 (VWR, West Chester, PA). Voltage was recorded with an Oakton pH6+ meter (Cole-Palmer, Vernon Hills, IL) and corrected to temperature. The probe was positioned at 6 cm from the most caudal aspect of the columella. The probe remained in position until the readings were stable. All measurements were taken from the right nostril and by the same operator. Subjects on intranasal medications (steroids or anticholinergics) or with history of nasal or sinus surgery were excluded from the study.

A further data set concerns coagulase-negative. The conditions noted are these: aerosolized, non-CF subjects; cited from earlier work.
In a further data set the test system is human CF airway cultures. The experiment in a line: ASL viscosity in human CF airway cultures. In kind it is cell-based.
The test system of data set [2] is S. aureus. The experiment in a line: CF sputum bacterial killing, bacteria-coated grids assay. The note with it: for bacterial killing in human CF sputum: grid assay, compared to saline. In kind it is cell-based, S. aureus (SH1000). How it is done:
Adults diagnosed with CF were recruited. Patients were asked to swallow saliva and to expectorate all secretions during routine clinic visits. Sputum plugs were visually identified and separated from saliva, weighed and stored at −70° C. in small, tightly sealed containers to minimize water loss under needed. […] To guarantee adequate mixing of sputum with the different solutions, the mixture was homogenized (Sonic Dismembrator Model 100, Fisher Scientific) for 30 seconds. All experiments were conducted in a humidified chamber with constant 5% CO2.
To interrogate individual bacteria killing in CF sputum or in pigs, bacteria-coated grids assay were used (Pezzulo A A, Tang X X, Hoegger M J, Alaiwa M H, Ramachandran S, Moninger T O, et al. Reduced airway surface pH impairs bacterial killing in the porcine cystic fibrosis lung. Nature. 2012; 487(7405):109-13. Epub 2012/07/06. doi: 10.1038/nature11130. PubMed PMID: 22763554; PubMed Central PMCID: PMC3390761; Abou Alaiwa M H, Reznikov L R, Gansemer N D, Sheets K A, Horswill A R, Stoltz D A, et al. pH modulates the activity and synergism of the airway surface liquid antimicrobials beta-defensin-3 and LL-37. Proceedings of the National Academy of Sciences of the United States of America. 2014; 111(52):18703-8. doi: 10.1073/pnas.1422091112. PubMed PMID: 25512526; PubMed Central PMCID: PMC4284593). Gold grids (200 mesh, Ted Pella) were functionalized using a series of intervention: 100 mM 11-mercaptoundecanoic acid (MUA in 100% alcohol, Aldrich) for 60 min at room temperature, 1:1 mixture of 100 mM N-ethyl-N-(3-[…]) carbodiimide) (EDC) and 100 mM N-hydroxysuccinimide (NETS) for 30 min at room temperature, 0.1 mg/ml Neutravidin (Sigma) at 37° C. for 1 hour.
Two different strains of S. aureus were used (SH1000 a human strain for CF sputum killing studies and SA43 a porcine strain for pig studies). Bacteria were grown to mid-log phase, incubated with 0.2 mg/ml N-hydroxysulphosuccinimide (sulpho-NHS)-biotin for 60 min at room temperature, quenched with 100 mM glycine to bind excess free biotin and allowed to attach to Neutravidin-coated grids for 15 minutes prior to the experiment.
After bacteria-coated grids were exposed to pig trachea for 5 minutes or CF sputum for 15 minutes, they were immediately rinsed in phosphate buffered saline and stained with SYTO9/propidium iodide (Live/Dead BacLight Bacterial viability assay, Invitrogen), mounted on slides and imaged on a laser-scanning confocal microscope (Olympus FV1000). Live (green) and dead (red) bacteria were automatically counted using Image-based Tool for Counting Nuclei (ITCN 1.6, UCSB Center for Bio-Image Informatics, UC San Barbara) an ImageJ (U.S. National Institutes of Health, Bethesda, Maryland, USA) plugin.

Data set [3] has as its system tracheal ASL of non-CF piglets. The experiment in a line: Tracheal ASL pH of non-CF (wild type) newborn piglets after aerosolized buffer. Type of data set: in vivo, pig. An excerpt:
(§2) To measure pH in pigs in vivo, non-invasive dual lifetime referencing was used to interrogate a 3×3 mm planar optode (pH sensitive foil, PreSens GmbH) applied directly to the tracheal surface of anesthetized pigs (Pezzulo A A, Tang X X, Hoegger M J, Alaiwa M H, Ramachandran S, Moninger T O, et al. Reduced airway surface pH impairs bacterial killing in the porcine cystic fibrosis lung. Nature. 2012; 487(7405):109-13. Epub 2012/07/06. doi: 10.1038/nature11130. PubMed PMID: 22763554; PubMed Central PMCID: PMC3390761). pH-dependent polarized light phase shift was measured using a single channel pH meter (pH-1 mini; PreSens GmbH). The tip of the fiber optic pH meter was kept at the same constant distance from the tracheal surface in all samples and confirmed by recording the amplitude. Calibration before each set of measurements was done by measuring phase shift from flat filters soaked in standard pH buffers. All measurements were obtained in a humidified chamber at 37° C. and constant 5% CO2 to mimic physiologic conditions.
Pigs were initially sedated with Ketamine (20 mg/kg, IM injection) and Xylazine (2 mg/kg, IM injection) and anesthetized using Propofol (2 mg/kg, IV injection). The trachea was surgically exposed and accessed anteriorly. A small anterior window through the tracheal rings accessed a tracheal window to interventions and pH measurements. All studies obtained in a 100% humidified chamber at 37° C. and constant 5% CO2 to mimic physiologic conditions.

In a further data set the test system is mice. From the text: FIGS. 14A-14G. […] (A) BAL pH measured 3.5 hr after THAM inhalation. Mice were aerosolized with THAM (10× dose used in our prior human studies) or water (ctrl) in a whole-body exposure chamber for 3.5 hrs/d (5 d total). 3 d later mice were euthanized/studied. (B) BAL-total cell cts. (C) BAL-% alveolar macrophages. (D) BAL-LDH activity. […] (F) Airway resistance (FlexiVent). […] (G) Lung histology (HE). Data are mean±SEM. n=4-10/group. * p<0.05, t-test. Some SEM bars are hidden in mean bars.

For data set [4], the system named is human non-CF/CF airway epithelial cultures. The note with it: THAM (1 μl), pH at 0 & 15 m. How it is done:
FIGS. 15A-15B. […] (A) THAM (1 μl) was applied to human n non-CF/CF airway epithelial cultures. pH was measured at 0 & 15 m with SNARF. Data are mean±SEM. n=6 donors/group. * p<0.05, t-test.

A short description of data set [5]: Buffering capacity by acid titration. In kind it is physicochemical. The conditions noted are these: 0.3 M tromethamine titrated with 0.1 M HCl. How it is done: 100 mM HCl was delivered into 5 mL of buffer at a rate of 0.2 ml/min. Titration was carried out to endpoint of pH 3. The volume of HCl delivered was recorded and used to calculate the acid equivalents needed to […] pH by 1 unit or buffering capacity.

For data set [6], the system named is nasal pH of subjects with cystic fibrosis (CF). How it is done:
as §1

Another data set concerns human subjects. The conditions noted are these: 24 h after aerosolized nasal delivery. How it is done:
as §1

For data set [7], the system named is tracheal ASL of CF piglets. The conditions noted are these: 15 minutes after aerosolized tromethamine.
Source text: as §2
Pigs were initially sedated with Ketamine (20 mg/kg, IM injection) and Xylazine (2 mg/kg, IM injection) and anesthetized using Propofol (2 mg/kg, IV injection). The trachea was surgically exposed and accessed anteriorly. A small anterior window through the tracheal rings accessed a tracheal window to interventions and pH measurements. […]

The subject of another data set is non-CF newborn pig. The note with it: PARI LC-PLUS nebulizer, distal mainstem bronchi.
Data set [8] relates to nasal epithelia of CF subjects. An excerpt:
Methods Mol Biol. 2011; 741:69-86. doi: 10.1007/978-1-61779-117-8_6. PubMed PMID: 21594779; PubMed Central PMCID: PMCPMC3760477).

For data set [9] the following is noted: intravenous, cited from earlier work.
Data set [10] concerns S. aureus. The conditions noted are these: 15 minutes after aerosolized tromethamine, compared to NaCl.
Method: Pigs were initially sedated with Ketamine (20 mg/kg, IM injection) and Xylazine (2 mg/kg, IM injection) and anesthetized using Propofol (2 mg/kg, IV injection). The trachea was surgically exposed and accessed anteriorly. A small anterior window through the tracheal rings accessed a tracheal window to interventions and pH measurements. All studies obtained in a 100% humidified chamber at 37° C. and constant 5% CO2 to mimic physiologic conditions. […]

Source text for human CF airway cultures: (A) Effect of saline or THAM on ASL viscosity in humanCF airway cultures. […] Data are mean±SEM. n=6 individual donors/group. * p<0.05, t-test.
Two approaches are used to investigate the viscoelastic properties of airway mucus. […] Second, in airway epithelial cell cultures from non-CF and CF newborn pig and human donors, mucus viscosity (±THAM) is estimated by measuring the diffusion of fluorescent FITC-dextran with a FRAP assay and ASL/mucus pH using the pH indicator SNARF-1 (FIG. 11D&13A). Viscosity is directly correlated to diffusion. If the viscosity is high, FITC-dextran will slowly diffuse to the photo-bleached ASL areas.
Source text for non-CF newborn pig: THAM was aerosolized into a sedated, non-CF newborn pig with a PARI LC-PLUS® nebulizer, using a cone mask over the snout. After sedation, a pH probe was passed through the vocal cords and into the distal mainstem bronchi. ASL pH was continuously measured.

As for `OC[C@@H](O)[C@H](O)[C@@H](O)CO` [xylitol], the “nasal pH” value in data set [1] is on record as “no effect”. Moreover, in the data set with coagulase-negative, the “nasal coagulase-negative S. aureus colonization” value is listed as “decreased”.

As for `O=C([O-])O.[Na+]` [NaHCO3], the “time for nasal pH to return to baseline” value in data set [1] (250 μl of 2% (238 mM) NaHCO3) is at most 60 minutes. In data set [1] (250 μl of 2% (238 mM) NaHCO3 aerosolized into the nose), the “nasal ASL pH” value is on record as “increased ASL pH”. Also, the “effect of a higher concentration on the duration of the rise in nasal pH” value in [1] (NaHCO3 increased to 5% or 7%) is listed as “no additional effect”. The ASL viscosity result in the data set with human CF airway cultures was “reduced viscosity”. The “bacterial killing in human CF sputum” value with S. aureus [2] was “improved bacterial killing to non-CF levels”. Besides, the “CF sputum ability to kill S. aureus” value with S. aureus [2] (sputum mixed 1:1 v/v with 200 mM NaHCO3, compared to equimolar NaCl, grids recovered after 15 minutes) was “increased the CF sputum ability to kill S. aureus”. Also, the “tracheal ASL pH” value in [3] (250 μl of 200 mM NaHCO3 aerosolized onto exposed trachea) was “alkalinized ASL pH”. Besides, in [3] (NaHCO3/HCO3− aerosol, non-CF piglet trachea), the “time for ASL pH to return to baseline” value is given as at most 30 minutes. Moreover, the “effect of increasing HCO3− concentration on hBD-3 antimicrobial activity” value in the data set with S. aureus Xen-29 (constant pH 7.5, absence of Ca2+ & Mg2+, 1 μg/ml hBD-3, NaHCO3 10-80 mM) is reported as “slightly inhibited”; with S. aureus Xen-29 (constant pH 7.5, presence of 1 mM Ca2+ & 1 mM Mg2+, 5 μg/ml hBD-3) it was “inhibited”. The “effect of increasing HCO3− concentration on LL-37 antimicrobial activity” value was “slightly inhibited” with S. aureus Xen-29 (constant pH 7.5, absence of Ca2+ & Mg2+, 100 μm/ml LL-37, NaHCO3 10-80 mM) and “inhibited” with S. aureus Xen-29 (constant pH 7.5, presence of 1 mM Ca2+ & 1 mM Mg2+, 100 μm/ml LL-37).

As to `NC(CO)(CO)CO` [tromethamine, tris(hydroxymethyl)aminomethane], in the data set on mice (BAL pH 3.5 hr after THAM inhalation), the “airway (BAL) pH” value is recorded as “raised the airway pH”. In addition, the “BAL other proinflammatory cytokines, THAM vs water control” value with mice (mouse, in vivo) is listed as “no difference”. Moreover, the “clinical signs, gross pathology, BAL cell counts/cytokines/LDH, bronchoconstriction, histopathology” value in the data set on mice (mouse, in vivo) is reported as “no adverse treatment related findings”. Also, the “tolerability of THAM exposure” value in the data set on mice (mouse, in vivo) is reported as “well tolerated”. Moreover, the “nasal pH” value was “alkalinized the nasal pH” in data set [1] and “increased nasal pH” in data set [6] (250 μl tromethamine). Besides, the “pH change at 30 min as share of the maximal pH response” value was 30% in [1] (30 min after THAM aerosolization, non-CF noses) and ~ 80% in [6] (30 min after THAM aerosolization into the nose of people with CF). For the same compound, in data set [4], the “alkalinization of CF vs non-CF epithelia” value was “Alkalinizes CF Epithelia Greater than Non-CF”. Further, the “additional buffering range at lower pH values” in data set [5] is given as 3-6 pH. Further, the ASL viscosity entry in the data set on human CF airway cultures was “reduced viscosity”. For the same compound, in data set [6] (250 μl tromethamine, 30 minutes was the total duration of the experiment), the “duration of increased nasal pH” value stood at 30 minutes. The adverse effects reported entry with human subjects is listed as “no adverse effects”. In the data set on S. aureus [2], the “bacterial killing in human CF sputum” value is “improved bacterial killing to non-CF levels; also recorded: acutely restored ASL bacterial killing”. Also, the “ability of CF sputum to kill S. aureus” value with S. aureus [2] (sputum mixed 1:1 (w/v) with 300 mM tromethamine ± 1197 mM (7%) NaCl, compared to hypertonic saline alone) is “increased the ability of CF sputum to kill S. aureus”. Besides, in data set [3] (250 μl 0.3M tromethamine), the “tracheal ASL pH immediately after administration” value is “raised pH”. Further, in data set [3] (250 μl 0.3M tromethamine, 60 minutes), the “tracheal ASL pH at 60 minutes” value was “still higher than baseline”. Also, the “effect on hBD-3 antimicrobial activity” value in the data set on S. aureus Xen-29 (10 mM tromethamine (pH 8.65) vs 10 mM xylitol (pH 7.02), 1 μg/ml hBD-3, ionic strength 125 mM) is listed as “enhanced”. For the same compound, the “effect on LL-37 antimicrobial activity” value in the data set with S. aureus Xen-29 (10 mM tromethamine (pH 8.65) vs 10 mM xylitol (pH 7.02), 10 μg/ml LL-37, ionic strength 125 mM) was “enhanced”. For the same compound, the “tracheal ASL pH” value in data set [7] is given as “increased pH”. Moreover, the “airway alkalinization over time” value in the data set with non-CF newborn pig was “Prolonged Airway Alkalinization”. The nasal voltage result in [8] (baseline vs 30 min after 250 μl 0.3 M tromethamine) is “no effect”. For the same compound, in [8] (inferred from nasal voltage), the epithelial barrier integrity result is given as “no disruption”. Moreover, the “persistence of serum alkalinizing effect” value in [9] (serum) was 16 to 48 h. The “half-life when given intravenously” value in data set [9] is “long half-life”. In addition, the ASL bacterial killing result is “acutely restored ASL bacterial killing” with S. aureus [10] (listed as THAM) and “enhanced bacterial killing” with S. aureus [10] (listed as Tromethamine).
